Assay results: ChEMBL document CHEMBL1145323, “Synthesis and biological activity of amide derivatives of nimbolide” (Bioorg Med Chem Lett, 2006)

The compounds below were run on HT-29 (assay: Antiproliferative activity against human HT29 cell line). Conditions: Homo sapiens, HT-29; read-out: IC50; call rule not given here.
Assay type: functional, cell-based
Work on `COC(=O)C[C@H]1[C@]2(C)C3=C(C)[C@H](c4ccoc4)C[C@H]3O[C@@H]2[C@H](O)[C@@H]2[C@]1(C)C(=O)C=C[C@@]2(C)C(=O)N1CCCCC1` yielded an IC50 of 91.5 µM.
For `COC(=O)C[C@H]1[C@]2(C)C3=C(C)[C@H](c4ccoc4)C[C@H]3O[C@@H]2[C@H](O)[C@@H]2[C@]1(C)C(=O)C=C[C@@]2(C)C(=O)NCc1ccc(F)cc1`, the IC50 was 78.1 µM.
For `COC(=O)C[C@H]1[C@]2(C)C3=C(C)[C@H](c4ccoc4)C[C@H]3O[C@@H]2[C@H](O)[C@@H]2[C@]1(C)C(=O)C=C[C@@]2(C)C(=O)N1CCOCC1`, the IC50 was 3.38 µM.
`COC(=O)C[C@H]1[C@]2(C)C3=C(C)[C@H](c4ccoc4)C[C@H]3O[C@@H]2[C@H](O)[C@@H]2[C@]1(C)C(=O)C=C[C@@]2(C)C(=O)NC(C)c1ccccc1` (stereo partly specified) showed an IC50 of 47.2 µM.
Compound `COC(=O)C[C@H]1[C@]2(C)C3=C(C)[C@H](c4ccoc4)C[C@H]3O[C@@H]2[C@H](O)[C@@H]2[C@]1(C)C(=O)C=C[C@@]2(C)C(=O)NCc1cccc(OC)c1` has an IC50 of 63.1 µM.

Same assay, conditions: ht-29
With `COC(=O)C[C@H]1[C@]2(C)C3=C(C)[C@H](c4ccoc4)C[C@H]3O[C@@H]2[C@H](O)[C@@H]2[C@]1(C)C(=O)C=C[C@@]2(C)C(=O)NCc1ccc(OC)cc1` the IC50 was “Not Active”.

Each compound was assayed on SW-60 (assay: Antiproliferative activity against […]). Conditions: Homo sapiens, SW-60; read-out: IC50.
Assay type: functional, cell-based
For `COC(=O)C[C@H]1[C@]2(C)C3=C(C)[C@H](c4ccoc4)C[C@H]3O[C@@H]2[C@H](O)[C@@H]2[C@]1(C)C(=O)C=C[C@@]2(C)C(=O)N1CCOCC1`, the IC50 was 5.72 µM.

Same assay, conditions: sw-60
In the case of `COC(=O)C[C@H]1[C@]2(C)C3=C(C)[C@H](c4ccoc4)C[C@H]3O[C@@H]2[C@H](O)[C@@H]2[C@]1(C)C(=O)C=C[C@@]2(C)C(=O)NCc1ccc(OC)cc1`, the IC50 is reported as “Not Active”.
With `COC(=O)C[C@H]1[C@]2(C)C3=C(C)[C@H](c4ccoc4)C[C@H]3O[C@@H]2[C@H](O)[C@@H]2[C@]1(C)C(=O)C=C[C@@]2(C)C(=O)N1CCCCC1` the IC50 was “Not Active”.
With `COC(=O)C[C@H]1[C@]2(C)C3=C(C)[C@H](c4ccoc4)C[C@H]3O[C@@H]2[C@H](O)[C@@H]2[C@]1(C)C(=O)C=C[C@@]2(C)C(=O)NCc1ccc(F)cc1` the IC50 was “Not Active”.
`COC(=O)C[C@H]1[C@]2(C)C3=C(C)[C@H](c4ccoc4)C[C@H]3O[C@@H]2[C@H](O)[C@@H]2[C@]1(C)C(=O)C=C[C@@]2(C)C(=O)NC(C)c1ccccc1` (stereo partly specified) was tested, and the IC50 was “Not Active”.
With `COC(=O)C[C@H]1[C@]2(C)C3=C(C)[C@H](c4ccoc4)C[C@H]3O[C@@H]2[C@H](O)[C@@H]2[C@]1(C)C(=O)C=C[C@@]2(C)C(=O)NCc1cccc(OC)c1` the IC50 was “Not Active”.

Each compound was assayed on HOP-62 (assay: Antiproliferative activity against human HOP62 cell line). Conditions: Homo sapiens, HOP-62; read-out: IC50.
Assay type: functional, cell-based
For `COC(=O)C[C@H]1[C@]2(C)C3=C(C)[C@H](c4ccoc4)C[C@H]3O[C@@H]2[C@H](O)[C@@H]2[C@]1(C)C(=O)C=C[C@@]2(C)C(=O)NCc1ccc(OC)cc1`, the IC50 was 102 µM.
`COC(=O)C[C@H]1[C@]2(C)C3=C(C)[C@H](c4ccoc4)C[C@H]3O[C@@H]2[C@H](O)[C@@H]2[C@]1(C)C(=O)C=C[C@@]2(C)C(=O)NCc1cccc(OC)c1` was tested, and the IC50 was 79.2 µM.

Same assay, conditions: hop-62
`COC(=O)C[C@H]1[C@]2(C)C3=C(C)[C@H](c4ccoc4)C[C@H]3O[C@@H]2[C@H](O)[C@@H]2[C@]1(C)C(=O)C=C[C@@]2(C)C(=O)N1CCCCC1` was tested, and the IC50 was “Not Active”.
In the case of `COC(=O)C[C@H]1[C@]2(C)C3=C(C)[C@H](c4ccoc4)C[C@H]3O[C@@H]2[C@H](O)[C@@H]2[C@]1(C)C(=O)C=C[C@@]2(C)C(=O)NCc1ccc(F)cc1`, the IC50 is reported as “Not Active”.
`COC(=O)C[C@H]1[C@]2(C)C3=C(C)[C@H](c4ccoc4)C[C@H]3O[C@@H]2[C@H](O)[C@@H]2[C@]1(C)C(=O)C=C[C@@]2(C)C(=O)N1CCOCC1` was tested, and the IC50 was “Not Active”.
With `COC(=O)C[C@H]1[C@]2(C)C3=C(C)[C@H](c4ccoc4)C[C@H]3O[C@@H]2[C@H](O)[C@@H]2[C@]1(C)C(=O)C=C[C@@]2(C)C(=O)NC(C)c1ccccc1` (stereo partly specified) the IC50 was “Not Active”.

The compounds below were run on A549 (assay: Antiproliferative activity against human A549 cell line). Conditions: Homo sapiens, A549; read-out: IC50.
Assay type: functional, cell-based
`COC(=O)C[C@H]1[C@]2(C)C3=C(C)[C@H](c4ccoc4)C[C@H]3O[C@@H]2[C@H](O)[C@@H]2[C@]1(C)C(=O)C=C[C@@]2(C)C(=O)N1CCCCC1` gave an IC50 of 78.3 µM.

Same assay, conditions: a549
`COC(=O)C[C@H]1[C@]2(C)C3=C(C)[C@H](c4ccoc4)C[C@H]3O[C@@H]2[C@H](O)[C@@H]2[C@]1(C)C(=O)C=C[C@@]2(C)C(=O)NCc1ccc(OC)cc1` was tested, and the IC50 was “Not Active”.
With `COC(=O)C[C@H]1[C@]2(C)C3=C(C)[C@H](c4ccoc4)C[C@H]3O[C@@H]2[C@H](O)[C@@H]2[C@]1(C)C(=O)C=C[C@@]2(C)C(=O)NCc1ccc(F)cc1` the IC50 was “Not Active”.
For `COC(=O)C[C@H]1[C@]2(C)C3=C(C)[C@H](c4ccoc4)C[C@H]3O[C@@H]2[C@H](O)[C@@H]2[C@]1(C)C(=O)C=C[C@@]2(C)C(=O)N1CCOCC1`, the IC50 was “Not Active”.
`COC(=O)C[C@H]1[C@]2(C)C3=C(C)[C@H](c4ccoc4)C[C@H]3O[C@@H]2[C@H](O)[C@@H]2[C@]1(C)C(=O)C=C[C@@]2(C)C(=O)NC(C)c1ccccc1` (stereo partly specified) was tested, and the IC50 was “Not Active”.
With `COC(=O)C[C@H]1[C@]2(C)C3=C(C)[C@H](c4ccoc4)C[C@H]3O[C@@H]2[C@H](O)[C@@H]2[C@]1(C)C(=O)C=C[C@@]2(C)C(=O)NCc1cccc(OC)c1` the IC50 was “Not Active”.

These compounds were tested on PC-3 (assay: Antiproliferative activity against human PC3 cell line). Conditions: Homo sapiens, PC-3; read-out: IC50.
Assay type: functional, cell-based
For `COC(=O)C[C@H]1[C@]2(C)C3=C(C)[C@H](c4ccoc4)C[C@H]3O[C@@H]2[C@H](O)[C@@H]2[C@]1(C)C(=O)C=C[C@@]2(C)C(=O)NCc1ccc(OC)cc1`, the IC50 was 21.5 µM.
For `COC(=O)C[C@H]1[C@]2(C)C3=C(C)[C@H](c4ccoc4)C[C@H]3O[C@@H]2[C@H](O)[C@@H]2[C@]1(C)C(=O)C=C[C@@]2(C)C(=O)N1CCCCC1`, the IC50 was 48.2 µM.
In the case of `COC(=O)C[C@H]1[C@]2(C)C3=C(C)[C@H](c4ccoc4)C[C@H]3O[C@@H]2[C@H](O)[C@@H]2[C@]1(C)C(=O)C=C[C@@]2(C)C(=O)N1CCOCC1`, the IC50 is reported as 2.26 µM.
`COC(=O)C[C@H]1[C@]2(C)C3=C(C)[C@H](c4ccoc4)C[C@H]3O[C@@H]2[C@H](O)[C@@H]2[C@]1(C)C(=O)C=C[C@@]2(C)C(=O)NC(C)c1ccccc1` (stereo partly specified) was tested, and the IC50 was 43.1 µM.

Same assay, conditions: pc-3
`COC(=O)C[C@H]1[C@]2(C)C3=C(C)[C@H](c4ccoc4)C[C@H]3O[C@@H]2[C@H](O)[C@@H]2[C@]1(C)C(=O)C=C[C@@]2(C)C(=O)NCc1ccc(F)cc1` was tested, and the IC50 was “Not Active”.
With `COC(=O)C[C@H]1[C@]2(C)C3=C(C)[C@H](c4ccoc4)C[C@H]3O[C@@H]2[C@H](O)[C@@H]2[C@]1(C)C(=O)C=C[C@@]2(C)C(=O)NCc1cccc(OC)c1` the IC50 was “Not Active”.

Each compound was assayed on OVCAR-5 (assay: Antiproliferative activity against human OVCAR5 cell line). Conditions: Homo sapiens, OVCAR-5; read-out: IC50.
Assay type: functional, cell-based
With `COC(=O)C[C@H]1[C@]2(C)C3=C(C)[C@H](c4ccoc4)C[C@H]3O[C@@H]2[C@H](O)[C@@H]2[C@]1(C)C(=O)C=C[C@@]2(C)C(=O)NCc1ccc(OC)cc1` the IC50 was 93.1 µM.
With `COC(=O)C[C@H]1[C@]2(C)C3=C(C)[C@H](c4ccoc4)C[C@H]3O[C@@H]2[C@H](O)[C@@H]2[C@]1(C)C(=O)C=C[C@@]2(C)C(=O)N1CCCCC1` the IC50 was 62.3 µM.
For `COC(=O)C[C@H]1[C@]2(C)C3=C(C)[C@H](c4ccoc4)C[C@H]3O[C@@H]2[C@H](O)[C@@H]2[C@]1(C)C(=O)C=C[C@@]2(C)C(=O)NCc1ccc(F)cc1`, the IC50 was 84.1 µM.
`COC(=O)C[C@H]1[C@]2(C)C3=C(C)[C@H](c4ccoc4)C[C@H]3O[C@@H]2[C@H](O)[C@@H]2[C@]1(C)C(=O)C=C[C@@]2(C)C(=O)N1CCOCC1` showed an IC50 of 2.11 µM.
For `COC(=O)C[C@H]1[C@]2(C)C3=C(C)[C@H](c4ccoc4)C[C@H]3O[C@@H]2[C@H](O)[C@@H]2[C@]1(C)C(=O)C=C[C@@]2(C)C(=O)NC(C)c1ccccc1` (stereo partly specified), the IC50 was 89.2 µM.

Same assay, conditions: ovcar-5
In the case of `COC(=O)C[C@H]1[C@]2(C)C3=C(C)[C@H](c4ccoc4)C[C@H]3O[C@@H]2[C@H](O)[C@@H]2[C@]1(C)C(=O)C=C[C@@]2(C)C(=O)NCc1cccc(OC)c1`, the IC50 is reported as “Not Active”.
